# Results as given in ChEMBL document CHEMBL5226292, “Nonpungent N-AVAM Capsaicin Analogues and Cancer Therapy” (J Med Chem, 2021).
# pIC50: −log10 of the molar value.
# Tests used:
# PPC-1 = assay: Antiproliferative activity in human PPC-1 cells assessed as cell growth inhibition; assay type: functional, cell-based
# [1] = Induction of apoptosis in human PBMC cells; assay type: functional
# DMS-114 = assay: Antiproliferative activity in human DMS-114 cells assessed as cell growth inhibition by MTT assay; assay type: functional, cell-based
# EFM-19 = assay: Antiproliferative activity in human EFM-19 cells assessed as cell growth inhibition by MTT assay; assay type: functional, cell-based
# TSU = assay: Antiproliferative activity in human TSU cells assessed as cell growth inhibition; assay type: functional, cell-based
# T47D = assay: Antiproliferative activity in human T47D cells assessed as cell growth inhibition by MTT assay; assay type: functional, cell-based
# MCF7 = assay: Antiproliferative activity in human MCF7 cells assessed as cell growth inhibition by MTT assay; assay type: functional, cell-based
# J774 = assay: Antiproliferative activity in mouse J774 cells assessed as cell growth inhibition; assay type: functional, cell-based
# [2] = Antiproliferative activity in human Cervical carcinoma cell assessed as cell growth inhibition; assay type: functional, cell-based
# [3] = Antiproliferative activity in mouse WEHI-3 cells assessed as cell growth inhibition; assay type: functional, cell-based
# [4] = Cytotoxicity against human Bone marrow cell assessed as cell growth inhibition; assay type: toxicity, cell-based; settings: bone marrow cells
# P388 = assay: Antiproliferative activity in mouse P388 cells assessed as cell growth inhibition by MTT assay; assay type: functional, cell-based
# Ca-Ski = assay: Antiproliferative activity in human Ca-Ski cells assessed as cell growth inhibition; assay type: functional, cell-based
# C6 = assay: Antiproliferative activity against rat C6 cells assessed as inhibition of cell growth at 10 uM relative to control; assay type: functional; design: scale not given: the % may be the effect or the level left
# [5] = AUC in po dosed mouse; assay type: ADME, organism-based; design: route po; settings: in vivo
# [6] = Drug concentration in rat enterocytes measured after 30 to 60 mins relative to control
# [7] = Drug concentration in Sprague-Dawley rat hepatocytes measured after 30 mins relative to control; assay type: ADME, cell-based, Hepatocyte; settings: 0.5 h
# [8] = AUC in sc dosed mouse; assay type: ADME, organism-based; design: route sc; settings: in vivo
structure (smiles),measurement,setting,value
CCCCC/C=C\C/C=C\C/C=C\C/C=C\CCCC(=O)NCc1ccc(O)c(OC)c1,pIC50,PPC-1,6.00
same,Activity,[1],60%
same,pIC50,DMS-114,4.82
same,pIC50,EFM-19,6.26
same,pIC50,TSU,7.00
same,pIC50,T47D,6.46
same,pIC50,MCF7,6.40
CCCCCCCCCCCCCCCC(=O)NCc1ccc(O)c(OC)c1,pIC50,EFM-19,6.00
same,pIC50,T47D,5.80
same,pIC50,MCF7,5.66
CC/C=C\C/C=C\C/C=C\CCCCCCCC(=O)NCc1ccc(O)c(OC)c1,pIC50,DMS-114,4.82
CCCCC/C=C\C/C=C\CCCCCCCC(=O)NCc1ccc(O)c(OC)c1,pIC50,DMS-114,4.37
CCCCCC[C@H](O)C/C=C\CCCCCCCC(=O)NCc1ccc(O)c(OC)c1,IC50,J774,8 µg/mL
same,IC50,[2],149 µg/mL
same,IC50,[3],3 µg/mL
same,IC50,[4],40 µg/mL
same,IC50,P388,9 µg/mL
CCCCCC[C@@H](C/C=C\CCCCCCCC(=O)NCc1ccc(O)c(OC)c1)OC(=O)Cc1ccccc1,IC50,J774,10 µg/mL
same,IC50,[2],74 µg/mL
same,IC50,[3],31 µg/mL
same,IC50,[4],73 µg/mL
same,IC50,P388,49 µg/mL
same,IC50,Ca-Ski,122 µg/mL
COc1cc(CNC(=O)CCCC/C=C/C(C)C)ccc1O [CAPSAICIN],pIC50,T47D,4.00
same,Activity,C6,20%
same,pIC50,MCF7,4.00
CCCCCCCC/C=C\CCCCCCCC(=O)NCc1ccc(O)c(OC)c1 [OLVANIL],Activity,[1],20.5%
same,AUC,[5],0.1 µg·h/g
same,pIC50,DMS-114,< 4.30
same,pIC50,EFM-19,6.15
same,Drug uptake,[6],1%
same,pIC50,T47D,6.12
same,Drug uptake,[7],4%
same,Activity,C6,95%
same,AUC,[8],8 µg·h/g
same,pIC50,MCF7,6.00
